From a compilation of properties of binary mixtures (doi:10.1016/j.molliq.2020.113380)

Test: xn = mol fraction of the nth substance listed
Conditions: 86 kPa, x2 = 0.5

O=C(O)COCC(=O)O + CCCC[N+](CCCC)(CCCC)CCCC.O=S(=O)([O-])O
electrical conductivity (293.15 K): 0.0002 S/m | speed of sound (293.15 K): 1820.2 m/s | electrical conductivity (298.15 K): 0.0004 S/m | speed of sound (298.15 K): 1770.7 m/s | electrical conductivity (303.15 K): 0.0007 S/m | speed of sound (303.15 K): 1720.3 m/s | viscosity (303.15 K): 38300 mPa·s | electrical conductivity (308.15 K): 0.0013 S/m | speed of sound (308.15 K): 1690.7 m/s | viscosity (308.15 K): 21200 mPa·s | electrical conductivity (313.15 K): 0.0022 S/m | speed of sound (313.15 K): 1661.5 m/s | viscosity (313.15 K): 12020 mPa·s | electrical conductivity (318.15 K): 0.0035 S/m | speed of sound (318.15 K): 1630.3 m/s | viscosity (318.15 K): 7750 mPa·s | electrical conductivity (323.15 K): 0.0054 S/m | speed of sound (323.15 K): 1603.6 m/s | viscosity (323.15 K): 5450 mPa·s | electrical conductivity (328.15 K): 0.0081 S/m | speed of sound (328.15 K): 1581 m/s | viscosity (328.15 K): 3520 mPa·s | electrical conductivity (333.15 K): 0.0117 S/m | speed of sound (333.15 K): 1560.2 m/s | viscosity (333.15 K): 2500 mPa·s | viscosity (338.15 K): 1750 mPa·s | viscosity (343.15 K): 1250 mPa·s
